pEC50: −log10 of the molar value. A value given as a limit tells only on which side of the number the result lay.

One may read the pEC50 as the negative decadic logarithm of the EC50, by convention in mol/L. As usually defined, the CC50 is the concentration giving 50% cytotoxicity.

In data set [1] the test system is Influenza strain A549 A/WSN/33 (H1N1). The data set is described as follows: microbe, parasite or virus in culture. The data set is classed as cell-based. The settings on record: Influenza A virus, A549, 20 h, A549 cells, influenza A/WSN/33 (H1N1), 20 hours incubation; read-out: A549_A(H1N1) EC50.
The next data set can be described thus: in vitro. The settings on record: human, CC50, uninfected A549 cells, CellTiter-Glo. Background: In ATP-based viability assays light output follows the ATP content of the culture.

Take `O=C1c2c(O)c(=O)ccn2N2CN1C/C=C\COc1cc(F)c(F)c3c1[C@@H]2c1ccccc1SC3` (single isomer, unassigned) [Compound 140C, (21a*R,*Z)-24,25-difluoro-16-hydroxy-6,10,13,21a-tetrahydro-7,8-(epiprop[1]en[1]yl[3]ylidene)-14,21-methanobenzo[6,7]thiepino[4,5-c]pyrido[1,2-f][1]oxa[5,6,9]triazacyclotridecine-15,17-dione]: the pEC50 in data set [1] is 7.43. In addition, in the data set “in vitro”, the CC50 was more than 10 µM.
On the same counts, the results for `O=C1c2c(O)c(=O)ccn2N2CN1C/C=C\COc1cc(F)c(F)c3c1[C@H]2c1ccccc1SC3` (single isomer, unassigned) [Compound 140D, (21a*S,*Z)-24,25-difluoro-16-hydroxy-6,10,13,21a-tetrahydro-7,8-(epiprop[1]en[1]yl[3]ylidene)-14,21-methanobenzo[6,7]thiepino[4,5-c]pyrido[1,2-f][1]oxa[5,6,9]triazacyclotridecine-15,17-dione] are 8.92 and more than 0.05 µM.
For the compound `C[C@@H]1/C=C/COc2c(F)cccc2[C@@H](c2ccccc2)N2CN1C(=O)c1c(O)c(=O)ccn12` (single isomer, unassigned) [Compound 141AA, (9*R,18*R,E)-4-fluoro-12-hydroxy-9-methyl-18-phenyl-6,9-dihydro-18H-10,17-methanobenzo[b]pyrido[1,2-f][1]oxa[5,6,9]triazacyclotridecine-11,13-dione], the pEC50 in data set [1] is 8.82. The compound further yielded a CC50 in the data set “in vitro” of more than 0.05 µM.
The matching figures for `C[C@H]1/C=C/COc2c(F)cccc2[C@@H](c2ccccc2)N2CN1C(=O)c1c(O)c(=O)ccn12` (single isomer, unassigned) [Compound 141AB, (9*S,18*R,E)-4-fluoro-12-hydroxy-9-methyl-18-phenyl-6,9-dihydro-18H-10,17-methanobenzo[b]pyrido[1,2-f][1]oxa[5,6,9]triazacyclotridecine-11,13-dione]: 8.70 and more than 0.05 µM.
As to `C[C@@H]1/C=C/COc2c(F)cccc2[C@H](c2ccccc2)N2CN1C(=O)c1c(O)c(=O)ccn12` (single isomer, unassigned) [Compound 141BA, (9*R,18*S,E)-4-fluoro-12-hydroxy-9-methyl-18-phenyl-6,9-dihydro-18H-10,17-methanobenzo[b]pyrido[1,2-f][1]oxa[5,6,9]triazacyclotridecine-11,13-dione], the negative logarithm of the EC50 (pEC50) in data set [1] is 6.51. For the same compound, the CC50 in the data set “in vitro” was more than 20 µM.
The matching figures for `C[C@H]1/C=C/COc2c(F)cccc2[C@H](c2ccccc2)N2CN1C(=O)c1c(O)c(=O)ccn12` (single isomer, unassigned) [Compound 141BB, (9*S,18*S,E)-4-fluoro-12-hydroxy-9-methyl-18-phenyl-6,9-dihydro-18H-10,17-methanobenzo[b]pyrido[1,2-f][1]oxa[5,6,9]triazacyclotridecine-11,13-dione]: 6.20 and more than 20 µM.
With `O=C1c2c(O)c(=O)ccn2N2CN1CC[C@@H]1C[C@@H]1COc1cccc3c1[C@@H]2c1ccccc1SC3` (single isomer, unassigned) [Compound 144AA, (1*R,13*S,15*S)-7-hydroxy-17-oxa-24-thia-2,3,10-triazaheptacyclo[16.12.1.12,10.03,8.013,15.022,31.025,30]dotriaconta-4,18,20,22(31),25(30),26,28-heptaene-6,9-dione], the pEC50 in data set [1] was less than 7.00. The compound further displayed a CC50 in “in vitro” of more than 0.2 µM.
The matching figures for `O=C1c2c(O)c(=O)ccn2N2CN1CC[C@H]1C[C@H]1COc1cccc3c1[C@@H]2c1ccccc1SC3` (single isomer, unassigned) [Compound 144AB, (1*R,13*R,15*R)-7-hydroxy-17-oxa-24-thia-2,3,10-triazaheptacyclo[16.12.1.12,10.03,8.013,15.022,31.025,30]dotriaconta-4,18,20,22(31),25(30),26,28-heptaene-6,9-dione]: less than 7.00 and more than 0.2 µM.
The matching figures for `O=C1c2c(O)c(=O)ccn2N2CN1CC[C@@H]1C[C@@H]1COc1cccc3c1[C@H]2c1ccccc1SC3` (single isomer, unassigned) [Compound 144BA, (1*S,13*S,15*S)-7-hydroxy-17-oxa-24-thia-2,3,10-triazaheptacyclo[16.12.1.12,10.03,8.013,15.022,31.025,30]dotriaconta-4,18,20,22(31),25(30),26,28-heptaene-6,9-dione]: 7.14 and more than 0.2 µM.
Take `O=C1c2c(O)c(=O)ccn2N2CN1CC[C@H]1C[C@H]1COc1cccc3c1C2c1ccccc1SC3` (single isomer, unassigned) [Compound 144BB, (1*S,13*R,15*R)-7-hydroxy-17-oxa-24-thia-2,3,10-triazaheptacyclo[16.12.1.12,10.03,8.013,15.022,31.025,30]dotriaconta-4,18,20,22(31),25(30),26,28-heptaene-6,9-dione]: the pEC50 in data set [1] is 7.29. In addition, the CC50 in the data set “in vitro” is more than 4 µM.
For the compound `O=C1c2c(O)c(=O)ccn2N2CN1C1(/C=C/COc3c(F)cccc3[C@H]2c2ccccc2)CCC1` (single isomer, unassigned) [Compound 145A, (18′*R,E)-4′-fluoro-12′-hydroxy-18′-phenyl-6′H,18′H-spiro[cyclobutane-1,9′-[10,17]methanobenzo[b]pyrido[1,2-f][1]oxa[5,6,9]triazacyclotridecine]-11′,13′-dione], the pEC50 in data set [1] is 8.51. Further, the CC50 in “in vitro” is more than 0.1 µM.
On the same counts, the results for `O=C1c2c(O)c(=O)ccn2N2CN1C1(/C=C/COc3c(F)cccc3[C@@H]2c2ccccc2)CCC1` (single isomer, unassigned) [Compound 145B, (18′*S,E)-4′-fluoro-12′-hydroxy-18′-phenyl-6′H,18′H-spiro[cyclobutane-1,9′-[10,17]methanobenzo[b]pyrido[1,2-f][1]oxa[5,6,9]triazacyclotridecine]-11′,13′-dionene] are 6.51 and more than 10 µM.
For the compound `O=C1c2c(O)c(=O)ccn2N2CN1C1(/C=C/COc3cccc4c3[C@@H]2c2ccccc2SC4)CCC1` (single isomer, unassigned) [Compound 147A, (17a′*R,*E)-12′-hydroxy-2′,17a′-dihydro-6′H-spiro[cyclobutane-1,9′-[3,4](epiprop[1]en[1]yl[3]ylidene)[10,17]methanobenzo[6,7]thiepino[4,5-c]pyrido[1,2-f][1]oxa[5,6,9]triazacyclotridecine]-11′,13′-dione], the pEC50 in data set [1] was less than 5.30. Moreover, the CC50 in the data set “in vitro” was more than 10 µM.
On the same counts, the results for `O=C1c2c(O)c(=O)ccn2N2CN1C1(/C=C/COc3cccc4c3[C@H]2c2ccccc2SC4)CCC1` (single isomer, unassigned) [Compound 147B, (17a′*S,*E)-12′-hydroxy-2′,17a′-dihydro-6′H-spiro[cyclobutane-1,9′-[3,4](epiprop[1]en[1]yl[3]ylidene)[10,17]methanobenzo[6,7]thiepino[4,5-c]pyrido[1,2-f][1]oxa[5,6,9]triazacyclotridecine]-11′,13′-dione] are 9.48 and more than 0.1 µM.
The matching figures for `C[C@@H]1/C=C/COc2c(ccc(F)c2F)[C@@H](c2ccccc2)N2CN1C(=O)c1c(O)c(=O)ccn12` (single isomer, unassigned) [Compound 148AA, (9*R,18*R,*E)-3,4-difluoro-12-hydroxy-9-methyl-18-phenyl-6,9-dihydro-18H-10,17-methanobenzo[b]pyrido[1,2-f][1]oxa[5,6,9]triazacyclotridecine-11,13-dione]: 8.80 and more than 0.05 µM.
For the compound `C[C@@H]1/C=C/COc2c(ccc(F)c2F)[C@H](c2ccccc2)N2CN1C(=O)c1c(O)c(=O)ccn12` (single isomer, unassigned) [Compound 148BA, (9*R,18*S,*E)-3,4-difluoro-12-hydroxy-9-methyl-18-phenyl-6,9-dihydro-18H-10,17-methanobenzo[b]pyrido[1,2-f][1]oxa[5,6,9]triazacyclotridecine-11,13-dione], in data set [1], the pEC50 is 5.59. The half-maximal cytotoxic concentration (CC50) in the data set “in vitro” was more than 10 µM.
On the same counts, the results for `COC[C@H]1/C=C/COc2ccccc2[C@@H](c2ccccc2)N2CN1C(=O)c1c(O)c(=O)ccn12` (single isomer, unassigned) [Compound 150A, (9*R,18*R,*E)-12-hydroxy-9-(methoxymethyl)-18-phenyl-6,9-dihydro-18H-10,17-methanobenzo[b]pyrido[1,2-f][1]oxa[5,6,9]triazacyclotridecine-11,13-dione] are 8.05 and more than 0.1 µM.
In the case of `COC[C@@H]1/C=C/COc2ccccc2[C@H](c2ccccc2)N2CN1C(=O)c1c(O)c(=O)ccn12` (single isomer, unassigned) [Compound 150B, (9*S,18*S,*E)-12-hydroxy-9-(methoxymethyl)-18-phenyl-6,9-dihydro-18H-10,17-methanobenzo[b]pyrido[1,2-f][1]oxa[5,6,9]triazacyclotridecine-11,13-dione], the pEC50 in data set [1] is 5.49. The compound further registered a CC50 in “in vitro” of more than 10 µM.
As to `O=C1c2c(O)c(=O)ccn2N2CN1CC/C=C\COc1ccc(F)c3c1[C@@H]2c1cccc(F)c1SC3` (single isomer, unassigned) [Compound 151A, (1*R,13*Z)-20,25-difluoro-7-hydroxy-16-oxa-23-thia-2,3,10-triazahexacyclo[15.12.1.12,10.03,8.021,30.024,29]hentriaconta-4,7,13,17,19,21(30),24(29),25,27-nonaene-6,9-dione], the pEC50 in data set [1] is less than 7.30. The same compound registered a CC50 in “in vitro” of more than 0.1 µM.
On to `O=C1c2c(O)c(=O)ccn2N2CN1CC/C=C\COc1ccc(F)c3c1[C@H]2c1cccc(F)c1SC3` (single isomer, unassigned) [Compound 151B, (1*S,13*Z)-20,25-difluoro-7-hydroxy-16-oxa-23-thia-2,3,10-triazahexacyclo[15.12.1.12,10.03,8.021,30.024,29]hentriaconta-4,7,13,17,19,21(30),24(29),25,27-nonaene-6,9-dione], for which the pEC50 in data set [1] was 8.36. Further, the CC50 in the data set “in vitro” is more than 0.1 µM.
